Data as given in BindingDB's records for patent US11787796 (Takeda Pharmaceutical, 2023).

Biological target: Plasma kallikrein (Homo sapiens, UniProt P03952)
Experiment: Inhibitory Activity of Exemplary Compounds Against Plasma Kallikrein
Experimental: Example compounds were evaluated for inhibition of the human activated kallikrein enzyme in two formats of an assay employing a fluorogenic peptide substrate. In one assay format, the concentrations of reagents were as follows: 20 mM Tris pH 7.5, 1 mM EDTA, 150 mM sodium chloride, 0.1% PEG-400, 0.1% Triton X-100, […], 300 uM Pro-Phe-Arg-7-amido-4-methylcoumarin substrate. Prior to reaction initiation with substrate, enzyme and inhibitors were preincubated for 30 min at RT. After initiation with substrate, reactions were incubated for 10 min at RT and fluorescence emission at 460 nm from 380 nm excitation measured with a microplate reader. In another assay format, the concentrations of reagents were as follows: 20 mM Tris pH 7.5, 1 mM EDTA, 150 mM sodium chloride, 0.1% PEG-400, 0.1% Triton X-100, 5 pM activated kallikrein enzyme, 300 uM Pro-Phe-Arg-7-amido-4-methylcoumarin substrate. Prior to reaction initiation with substrate, enzyme and inhibitors were preincubated for 30 min at RT. After initiation with substrate, reactions were incubated for 18 h at RT and fluorescence emission at 460 nm from 380 nm excitation measured with a microplate reader.

Plasma kallikrein, sequence (P03952 20-390 limits assumed): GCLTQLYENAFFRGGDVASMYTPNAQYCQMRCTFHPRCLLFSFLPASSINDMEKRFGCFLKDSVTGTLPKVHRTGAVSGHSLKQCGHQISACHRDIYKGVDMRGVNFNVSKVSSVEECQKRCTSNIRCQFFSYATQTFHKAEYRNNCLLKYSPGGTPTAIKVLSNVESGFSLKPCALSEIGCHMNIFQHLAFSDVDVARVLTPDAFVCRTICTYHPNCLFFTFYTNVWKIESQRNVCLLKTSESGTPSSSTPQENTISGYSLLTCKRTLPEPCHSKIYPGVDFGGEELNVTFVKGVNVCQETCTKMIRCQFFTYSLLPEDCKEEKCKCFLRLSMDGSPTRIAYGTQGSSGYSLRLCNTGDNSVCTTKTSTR
Plasma kallikrein, sequence (P03952 391-638 limits assumed): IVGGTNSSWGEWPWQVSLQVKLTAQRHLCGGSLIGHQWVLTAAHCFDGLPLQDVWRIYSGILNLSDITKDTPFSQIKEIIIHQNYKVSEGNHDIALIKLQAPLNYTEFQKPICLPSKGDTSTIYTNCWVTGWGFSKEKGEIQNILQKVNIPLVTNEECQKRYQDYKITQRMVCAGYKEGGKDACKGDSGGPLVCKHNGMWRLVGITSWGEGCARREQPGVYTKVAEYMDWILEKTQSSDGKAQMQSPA

## COc1ccc(-n2cnnn2)c(CNC(=O)c2nnn(Cc3cn4cc(C5CC5)ccc4n3)n2)c1F [US11787796, Compound I-28]
  EC50: < 1 nM
